Laboratory results reported in patent publication US9764001B2, “Target for diagnosis and treatment of diabetes and cardiovascular diseases” (The Regents of the University of California, priority 2012, dated 2017).
Entries after “also recorded” stand apart in the source; their conditions may differ. Like-named read-outs stand apart in the source and are kept apart here.

Key:
[1] = system: primary mouse islets; test: Static GSIS test using primary mouse islets; type: cell-based; conditions: FKN 100 ng/ml; PTX 250 ng/ml, Wortmannin 10 μM, PD98059 50 μM
Protocol: (FIGS. 6A-1 to 6A-4) GSIS test using primary mouse islets with or without pertussis toxin (PTX; 250 ng/ml), Wortmannin (Wort; 10 μM), or PD98059 (50 μM), in the presence or absence of FKN (100 ng/ml). Mean+/−SEM, n=6 per group.
Isolated mouse islets were cultured overnight in mouse islet media (DMEM containing 1 g/L glucose, 10% v/v FBS, 0.1% v/v Penicillin/Streptomycin).

[2] = system: Min6 cells; test: Intracellular calcium level measurement (fura-2) in Min6 cells; type: cell-based, mouse
Protocol: (FIGS. 6C to 6I) Intracellular calcium level in Min6 mouse beta cells in the presence or absence of glucose (FIG. 6C, with glucose; FIG. 6D, without glucose), nimodipine (10 μM) (FIG. 6E), control antibody (FIG. 6F), anti-CX3CR1 neutralizing antibody (FIG. 6G), PTX (250 ng/ml) (FIG. 6H), or U0126 (10 μM) (FIG. 6I). Mean+/−SEM.
(FIGS. 15A-1 to 15B-3) Intracellular calcium level in Min6 cells. Min6 cells were incubated in 2.8 mM glucose media with or without U0126 (10 μM) for 30 minutes, and then subjected to intracellular calcium measurement in the presence or absence of arginine (10 mM) and/or high glucose (16.7 mM) challenge. (FIGS. 15A-1 to 15A-3) Intracellular calcium level with arginine treatment. (FIGS. 15B-1 to 15B-3) Intracellular calcium level with arginine plus high glucose (16.7 mM) treatment. Area under the curve for first 90 (FIG. 15B-1) or 60 (FIG. 15B-2) seconds was graphed in FIG. 15B-3.
The Cytoplasmic free calcium ion concentration in Min6 cells was measured by fura-2 fluorescence ratio digital imaging. Briefly, Min6 cells, grown on coverslips, were loaded with 5 μM fura-2 AM [dissolved in 0.01% Pluronic F-127 plus 0.1% DMSO in KRB] at room temperature for 60 min and then washed in fresh KRB for 30 min. The coverslips with Min6 cells were mounted in a perfusion chamber on a Nikon microscope stage.

[3] = system: Min6 cells; test: Palmitate-induced ICER-1 and beta cell gene expression in Min6 cells (quantitative realtime RT-PCR); type: cell-based, mouse; conditions: palmitate 0.4 mM, FKN 100 ng/ml, U0126 10 μM, 48 h
Protocol: Min6 cells were incubated with palmitate (Pal; 0.4 mM) in the presence or absence of FKN (100 ng/ml) or U0126 (10 μM). 48 h later, cells were harvested and subjected to quantitative realtime RT-PCR.

[4] = system: Min6 cells; test: GSIS test using Min6 cells; type: cell-based, mouse; conditions: for glucose- and arginine plus glucose-stimulated insulin secretion: U0126 10 μM, arginine 10 mM, glucose 16.7 mM
Protocol: (FIG. 6B) GSIS test using Min6 cells with or without FKN (100 ng/ml) or U0126 (10 μM). Mean+/−SEM.
Min6 cells were incubated in 2.8 mM glucose media with or without U0126 (10 μM) for 30 minutes, and then subjected to intracellular calcium measurement in the presence or absence of arginine (10 mM) and/or high glucose (16.7 mM) challenge.

[5] = system: Min6 cells; test: ERK phosphorylation western blot in Min6 cells; type: cell-based, mouse; conditions: PTX 250 ng/ml pre-treatment 15 min
Protocol: FIG. 14. FKN stimulates ERK phosphorylation in a PTX-sensitive manner (related to FIGS. 6A-1 to 6Q-4). Min6 cells were pre-treated with DMSO (control), U0126 (10 μM), or PTX (250 ng/ml) for 15 min, and then incubated with or without FKN (100 ng) for 15 min. Cells were harvested and subjected to western blot.

[6] = system: human islets; test: Static GSIS studies using human islets; type: cell-based

COc1cccc(-c2cc(=O)c3ccccc3o2)c1N [PD98059]
effect of inhibitor on FKN-stimulated insulin secretion [1]: inhibited

N#CC(=C(/N)Sc1ccccc1N)/C(C#N)=C(\N)Sc1ccccc1N [U0126]
arginine plus glucose-stimulated intracellular calcium increase [2]: attenuated; also recorded: reduces | effect on FKN-induced intracellular calcium increase [2]: blocked | effect of MEK inhibitor on FKN effects on ICER-1, NeuroD, PDX-1 and Glut2 expression [3]: abolished | effect on FKN potentiation of glucose and GLP1-induced insulin secretion ([4]; FIG. 6B: U0126 10 μM, FKN 100 ng/ml): suppressed | glucose- and arginine plus glucose-stimulated insulin secretion [4]: reduces | glucose- and arginine plus glucose-stimulated insulin secretion ([4]; listed as MEK inhibitor): attenuated

pertussis toxin
sensitivity of FKN-stimulated ERK phosphorylation to inhibitor [5]: PTX-sensitive | effect on FKN-induced intracellular calcium increase ([2]; PTX 250 ng/ml, U0126 10 μM, anti-CX3CR1 antibody vs control antibody): blocked | effect of inhibitor on FKN-stimulated insulin secretion [1]: inhibited

B1: human FKN: human fractalkine used on isolated human islets (100 or 400 ng/ml) (protein, UniProt P78423 25-397, looked up)
Fractalkine: QHHGVTKCNITCSKMTSKIPVALLIHYQQNQASCGKRAIILETRQHRLFCADPKEQWVKDAMQHLDRQAAALTRNGGTFEKQIGEVKPRTTPAAGGMDESVVLEPEATGESSSLEPTPSSQEAQRALGTSPELPTGVTGSSGTRLPPTPKAQDGGPVGTELFRVPPVSTAATWQSSAPHQPGPSLWAEAKTSEAPSTQDPSTQASTASSPAPEENAPSEGQRVWGQGQSPRPENSLEREEMGPVPAHTDAFQDWGPGSMAHVSVVPVSSEGTPSREPVASGSWTPKAEEPIHATMDPQRLGVLITPVPDAQAATRRQAVGLLAFLGLLFCLGVAMFTYQSLQGCPRKMAGEMAEGLRYIPRSCGSNSYVLVPV
increase in GSIS ([6]; at the maximal concentration (100 or 400 ng/ml tested)): 65% | GSIS dose response ([6]; human FKN 100 or 400 ng/ml): dose responsive increase
